Reference: patent US10370538B2 (priority 2015, dated 2019)
“Also recorded” adds a separate entry of the source.

What was measured:
mycobacteria = details: reported in the literature; cited from earlier work
[1] = biological target: M. smegmatis DprE1 protein (Mycolicibacterium smegmatis, UniProt A0R607); assay: fluorescence labeling of purified DprE1 protein by dye-DNB analogues in the presence of M. smegmatis lysate; format: biochemical; details: for covalent fluorescence labeling of DprE1 protein: 10 μM probe, in the presence of M. smegmatis lysate
[2] = system: E. coli expressing TEM1-β-lactamase; format: cell-based
BCG [3] = format: cell-based, Mycobacterium bovis; details: 10 μM, room temperature, 1 h, washed
[4] = system: Mycobacterium tuberculosis H37Rv; format: cell-based
BCG [5] = format: cell-based, Mycobacterium bovis; details: 10 μM, no washing
[6] = system: patients' clinical sputum samples; assay: staining of patients' processed sputum samples; format: cell-based; details: 10 μM, 1 h, room temperature
Experimental: FIG. 15 is a series of digital fluorescence confocal microscope images of CDG-DNB2 stained patients' processed sputum samples. Processed sputum samples were centrifuged and resuspended in 10 μM CDG-DNB2 for 1 h at room temperature. Cells were pelleted and washed stringently 3 times with PBS before fixation with 10% formalin for 30 min. Cells were further visualized using a confocal microscope at 20× or 60×/Ex 490-Em520.
Clinical study with CDG-DNB2: Probe CDG-DNB2 has been evaluated in patients' clinical sputum samples: 4 positive and 4 negative samples.

M. smegmatis = details: 10 μM, room temperature, 1 h, washed
Experimental: FIGS. 5A-5C illustrate freshly cultured E. coli (TOP10), S. pneumoniae, S. aureus, S. sanguinis, C. propinquum, C. striatum and M. smegmatis were incubated with PBS, 10 μM of TG, TG-DNB1 or TG-DNB2 at room temperature for 1 h. Cells were washed stringently with PBS for 3 times then fixed in 10% formalin solution for 30 min before vizualized with a confocal microscope (63×/oil, Ex/Em-FITC).
The fold increasing (F/FPBS) was calculated by normalizing against the fluorescence intensity of PBS-treated cells. Experiments were performed twice with similar results.
Freshly cultured E. coli (TOP10), E. coli expressing TEM1-β-lactamase, S. pneumoniae, S. aureus, S. sanguinis, C. propinquum, C. striatum, and M. smegmatis were incubated with PBS, 10 μM CDG1, CDG-DNB1, or CDG-DNB2 at room temperature for 1 h. Cells were washed 3 times PBS and then fixed in 10% formalin solution for 30 min before analyzed with a confocal microscope under 63×/oil, Ex/Em-FITC.
The fluorescence intensity of PBS treated cells of each strain was arbitrarily set as 1 to show the fold increasing (F/FPBS).

Chain of M. smegmatis DprE1 protein (A0R607 whole entry): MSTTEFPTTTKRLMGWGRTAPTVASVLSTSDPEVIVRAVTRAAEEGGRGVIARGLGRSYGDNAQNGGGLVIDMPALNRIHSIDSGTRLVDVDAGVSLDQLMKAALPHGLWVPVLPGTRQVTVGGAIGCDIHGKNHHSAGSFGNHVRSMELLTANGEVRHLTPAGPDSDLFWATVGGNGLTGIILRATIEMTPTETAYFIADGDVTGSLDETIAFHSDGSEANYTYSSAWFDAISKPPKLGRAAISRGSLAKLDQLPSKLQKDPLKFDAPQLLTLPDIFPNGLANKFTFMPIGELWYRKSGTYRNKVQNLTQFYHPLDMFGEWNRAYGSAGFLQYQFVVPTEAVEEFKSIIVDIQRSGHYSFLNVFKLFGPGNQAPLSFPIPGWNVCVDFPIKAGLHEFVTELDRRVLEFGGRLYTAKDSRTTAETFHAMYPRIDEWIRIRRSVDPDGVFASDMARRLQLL

## C[C@H]1COC2(CCN(c3nc(=O)c4cc(C(F)(F)F)cc([N+](=O)[O-])c4s3)CC2)O1 [BTZ043]
mycobacteria
  antimycobacterial activity: potent antimycobacterial agents

## COc1ccc(OCCNC(=O)c2cc([N+](=O)[O-])cc([N+](=O)[O-])c2)cc1 [DNB1, reference compound]
[1]; DprE1SM incubated with 50 μM DNB1 for one hour prior to addition of TG-DNB1
  DprE1 labeling by TG-DNB analogues after pre-incubation with DNB1: abolished the band
mycobacteria
  antimycobacterial activity: potent antimycobacterial agents

## Cc1cc(OCCNC(=O)c2cc([N+](=O)[O-])cc([N+](=O)[O-])c2)ccc1-c1c2ccc(=O)cc-2oc2cc(OCc3ccc(OCC4=C(C(=O)O)N5C(=O)[C@@H](NC(=O)Cc6ccccc6)[C@H]5SC45CC5)cc3)ccc12 [CDG-DNB2]
[2]
  hydrolysis of probe by TEM1 β-lactamase-transformed E. coli: can hydrolyze CDG-DNB2 and generate the uncaged fluorescent signal
  retention of fluorescence in TEM1 β-lactamase-transformed E. coli: cannot retain the fluorescence
BCG [3]
  staining of BCG (confocal): exhibited an intense (green) fluorescent signal
[4]
  fold increase of fluorescence intensity over control levels, H37Rv: about 20 fold
  staining of H37Rv (confocal): exhibited an intense (green) fluorescent signal
BCG [5]; imaged every 2.5 min from 5 min
  time at which prominent fluorescence was observed: 15 min
BCG [5]; time at which imaging was stopped
  continuous enhancement of fluorescence till: 75 min
[6]; 4 negative samples
  staining of negative sputum samples: all the negative samples had little background fluorescence
[6]; 4 positive samples
  staining of positive sputum samples: 4 positive samples all displayed green fluorescence-stained bacteria

## COc1ccc(-c2c3ccc(=O)cc-3oc3cc(OCc4ccc(OCC5=C(C(=O)O)N6C(=O)[C@@H](NC(=O)Cc7ccccc7)[C@H]6SC5)cc4)ccc23)c(C)c1 [CDG-1]
M. smegmatis
  trapping of fluorescence signal in or on M. smegmatis cells: cannot be trapped in or on the cells

## Cc1cc(OCCn2cc(CNC(=O)c3cc([N+](=O)[O-])cc([N+](=O)[O-])c3)nn2)ccc1-c1c2ccc(=O)cc-2oc2cc(O)ccc12 [TG-DNB1]
[1]
  covalent fluorescence labeling of DprE1 protein: significantly higher labeling capability than did the two mononitro compounds; also recorded: a fluorescent band was observed

## Cc1cc(OCCNC(=O)c2cc([N+](=O)[O-])cc([N+](=O)[O-])c2)ccc1-c1c2ccc(=O)cc-2oc2cc(O)ccc12 [TG-DNB2]
[1]
  covalent fluorescence labeling of DprE1 protein: significantly higher labeling capability than did the two mononitro compounds; also recorded: a fluorescent band was observed
